Source: patent US4438131A, “.OMEGA.-Cyano-1, .OMEGA.-diphenyl-azaalkane derivatives, their preparation and drugs containing them” (BASF Aktiengesellschaft, priority 1981, dated 1984)
Where two headings read alike, the source gives them in different places.

Experiments:
[1] = test system: passive cutaneous anaphylaxis (PCA); test: Antiallergic action, passive cutaneous anaphylaxis (PCA) in rats, oral; assay type: in vivo, rat (male); details: for % inhibition (diameter of colored spot, PCA): 21.5 mg/kg oral
Experimental: The model of passive cutaneous anaphylaxis (PCA) was used for this test.
Anesthetized male rats (100-140 g) were sensitized by intradermal injection (shaven dorsal skin) of 0.1 ml of an ovalbumin antiserum. After a sensitizing period of about 48 hours, they were treated with the test substances (oral administration). After various latency periods (2, 6, 12 and 24 hours), the experimental animals were injected intravenously with an antigen/Evans blue solution. The animals were sacrificed in each case 30 minutes after the injection, and the dorsal skin was removed and the circular blue stain on the inner surface measured.
The antiallergic action was quoted as the relative inhibition (Δ%) of the diameter of the colored spot.

systolic blood pressure = test: Antihypertensive action, spontaneously hypertensive rats (SHR), oral; assay type: in vivo; details: for Lowering of systolic blood pressure, R.A. (relative activity; verapamil = 1.00) / ED20: SHR, peroral; for ED20: Rattus norvegicus, po, read-out: Lowering of systolic blood pressure, ED 20%; for Antihypertensive action (in words): after 24 hours, SH rats, verapamil at 100 mg/kg
Experimental: The substances were administered orally to male spontaneously hypertensive rats (SHR) of the Okamoto strain (weight: 300-400 g). The systolic blood pressure was determined non-operatively on the tails of the rats by piezo-crystal measurements before and 2, 6, 24 and, where relevant, 30 hours after administration.
The dose which reduced the systolic pressure by 20%, taking into consideration the values from untreated control animals, was taken as the ED 20%.

[2] = test system: creatine phosphate concentration in the myocardium; test: Cardio-protective action against hypoxic cardiac metabolism disorders, oral, rats; assay type: in vivo, rat (Wistar); details: compounds 2-40 mg/kg, verapamil up to 40 mg/kg
Experimental: A drastic depletion of energy-rich phosphates in the mycocardium of anesthetized rats (Wistar, weight: 250-350 g, anesthetic: thiobutabarbital 100 mg/kg i.p.) was produced by standardized respiration with an oxygen-deficient mixture (2% of O2).
The test substances were administered to the still conscious animals 6 hours before the oxygen-deficient respiration. The percentage difference between the creatine phosphate concentration in the myocardium of animals pretreated with the test substance and that of the untreated hypoxic control animals was determined.

[3] = test system: collagen-induced platelet aggregation; test: Platelet aggregation-inhibiting action after oral administration to rats; details: Rattus norvegicus, 1 h, read-out: Inhibition of aggregation, ED 33%
Experimental: The substances were administered orally to male Sprague-Dawley rats (200-250 g). 1 hour after administration, samples of blood were taken under ether anesthetic, and platelet-rich plasma was obtained by centrifugation (300 g, 10 minutes at 4° C.). The platelet aggregation was measured photometrically, with the addition of MgCl2 and (end concentration of 10 mmoles/l) and Collagen Stago (end concentration of 0.02 mg/ml), in a Mark 3 Born Aggregometer. The maximum change in extinction/second was used as a measure of the aggregation.

Molecule | Lowering of systolic blood pressure, R.A. (relative activity; verapamil = 1.00) (systolic blood pressure; 2 hrs) | Lowering of systolic blood pressure, R.A. (relative activity; verapamil = 1.00) (systolic blood pressure; 6 hrs) | ED20 (systolic blood pressure; 2 hrs) | ED20 (systolic blood pressure; 6 hrs) | ED20 (systolic blood pressure; 24 hrs) | ED33 [3] | also measured
CCCCCCCCCCCCC(C#N)(CCCN(C)CCc1cccc(OC)c1)c1cccc(OC)c1 (stereo not drawn) [Example 3, 1,7-bis-(3-Methoxyphenyl)-3-methylaza-7-cyano-nonadecane] | 0.93 | 1.46 | 24.9 mg/kg | 14.1 mg/kg | 18.7 mg/kg | 9.6 mg/kg | % inhibition (diameter of colored spot, PCA) ([1]; latency period 2 hours): 15%; % inhibition (diameter of colored spot, PCA) ([1]; latency period 6 hours): 40%; % inhibition (diameter of colored spot, PCA) ([1]; latency period 12 hours): 83%; % inhibition (diameter of colored spot, PCA) ([1]; latency period 24 hours): 68%; Antiallergic action (in words) ([1]; after oral administration): long-lasting antiallergic action; Antiallergic action compared with verapamil (in words) ([1]; latency periods of 12 and 24 hours, oral): substantially more powerful action; Antihypertensive action (in words) (systolic blood pressure): still have an antihypertensive action; Cardio-protective action (in words) [2]: particularly powerful action
CCCCCCCCCCCCC(C#N)(CCCN(C)CCc1ccccc1)c1ccccc1 (stereo not drawn) [Example 5, 1,7-Diphenyl-3-methylaza-7-cyano-nonadecane] |  |  |  |  |  |  | Cardio-protective action (in words) [2]: particularly powerful action
COc1ccc(CCN(C)CCCC(C#N)(c2ccc(OC)c(OC)c2)C(C)C)cc1OC (stereo not drawn) [Verapamil, 1,7-bis-(3,4-dimethoxyphenyl)-3-methylaza-7-cyano-8-methyl-nonane, reference compound] |  |  | 23.2 mg/kg | 20.6 mg/kg |  |  | % inhibition (diameter of colored spot, PCA) ([1]; latency period 2 hours): 53%; % inhibition (diameter of colored spot, PCA) ([1]; latency period 6 hours): 50%; % inhibition (diameter of colored spot, PCA) ([1]; latency period 12 hours): 33%; % inhibition (diameter of colored spot, PCA) ([1]; latency period 24 hours): 31%; Antihypertensive action (in words) (systolic blood pressure): ineffective
CCCCCCCCCCCCC(C#N)(CCCN(C)CCc1ccc(SCC)cc1)c1cccc(OC)c1 (stereo not drawn) [Example 42, 1-(4-Ethylmercaptophenyl)-3-methylaza-7-cyano-7-(3-methoxyphenyl)-nonadecane] | 2.25 |  | 0.3 mg/kg |  | 58.3 mg/kg |  | 
CCCCCCCCCCCC(C#N)(CCCN(C)CCc1cccc(OC)c1)c1cccc(OC)c1 (stereo not drawn) [Example 25, 1,7-bis-(3-Methoxyphenyl)-3-methylaza-7-cyano-octadecane] | 3.41 | 2.02 | 6.8 mg/kg | 10.2 mg/kg | 46.4 mg/kg |  | 
CCCCCCCCCCCCC(C#N)(CCCN(C)CCc1cccc(OC)c1)c1ccc(OC)c(OC)c1 (stereo not drawn) [Example 19, 1-(3-Methoxyphenyl)-3-methylaza-7-cyano-7-(3,4-dimethoxyphenyl)-nonadecane] | 3.09 | 1.04 | 7.5 mg/kg | 19.8 mg/kg | 46.4 mg/kg |  | 
CCCCCCCCCCCCC(C#N)(CCCN(C)CCc1cccc(OC)c1)c1cc(OC)c(OC)c(OC)c1 (stereo not drawn) [Example 20, 1-(3-Methoxyphenyl)-3-methylaza-7-cyano-7-(3,4,5-trimethoxyphenyl)-nonadecane] | 6.27 | 3.12 | 3.7 mg/kg | 6.6 mg/kg | 12.5 mg/kg |  | Antihypertensive action (in words) (systolic blood pressure): still have an antihypertensive action
CCCCCCCCCCCCCCCC(C#N)(CCCN(C)CCc1cccc(OC)c1)c1cccc(OC)c1 (stereo not drawn) [Example 6, 1,7-bis-(3-Methoxyphenyl)-3-methylaza-7-cyano-docosane] |  |  |  |  |  | 49 mg/kg | 
1-(3,5-Diethoxyphenyl)-3-methylaza-7-cyano-7-(3-ethoxyphenyl)-docosane [Example 68] |  |  |  |  |  |  | Cardio-protective action (in words) [2]: particularly powerful action
CCCCCCCCCCCCC(C#N)(CCCN(C)CCc1cc(OC)cc(OC)c1)c1cccc(OCC)c1 (stereo not drawn) [Example 70, 1-(3,5-Dimethoxyphenyl)-3-methylaza-7-cyano-7-(3-ethoxyphenyl)-nonadecane] |  |  |  |  |  | 119 mg/kg | 
CCCCCCCCCCCCC(C#N)(CCCNCCc1cccc(OC)c1)c1cccc(OC)c1 (stereo not drawn) [Example 75, 1,7-bis-(3-Methoxyphenyl)-3-aza-7-cyano-nonadecane] |  |  |  |  |  | 90.2 mg/kg | 
